Measurements published in patent US11230547B2, “Purine inhibitors of human phosphatidylinositol 3-kinase delta” (Merck Sharp & Dohme Corp., priority 2017, dated 2022).

Tests used:
PI3Kdelta = PI3Kdelta (Homo sapiens (Human), UniProt O00329); assay: HTRF PI3K biochemical assay, delta isoform; conditions: 0.3 nM enzyme, 100 uM ATP, 5 uM PIP2, form screened per table
From the text: (§1) HTRF PI3K Biochemical Assay to Measure Intrinsic Potency of Compound Inhibitors
(§2) The PI3-Kinase biochemical assays were developed to measure the intrinsic potency and compound dependent inhibition of the alpha, beta, delta, and gamma PI3K isoform enzymes. This assay was developed and further optimized from a kit produced by Upstate (Millipore catalog #33-047) (Millipore Sigma, Billerica Mass., USA) and has been configured for high throughput screening (HTS) and structure-activity relationship (SAR) screening. Briefly, this procedure exploits the exquisite specificity and high affinity binding of […] phosphatidyl(3,4,5)triphosphate (PIP3) to the GRP1 pleckstrin homology (PH) domain to generate the signal. In the absence of PIP3, an HTRF (Homogeneous Time-Resolved Fluorescence energy transfer) complex is formed consisting of europium (u)-labeled anti-GST, GST tagged GRP1-PH domain, biotin-PIP3 (biotinylated-PIP3) and streptavidin conjugated APC (Allophycocyanin). The native PIP3 produced by PI3-Kinase activity disrupts in a competitive manner the biotin-PIP3 from the pleckstrin homology (PH) domain, resulting in the loss of energy transfer (HTRF complex) and a decrease in the signal. The format of this assay is the same for all 4 isoforms of PI3K; the differences lie in the concentration of enzyme used to achieve robust assay window. The alpha, beta, and delta assays are run at 0.5, 1, and 0.3 nM enzymes and the gamma assay is run at 5 nM enzyme. The ATP concentration is 100 uM in the alpha, beta, and delta assays and 50 uM adenosine triphosphate (ATP) in the gamma assay. All reactions are run at 5 uM PIP2.
(§3) Compounds are serially diluted (3-fold in 100% DMSO) across a 384-well polypropylene source plated from column 3 to column 12 and column 13 to column 22, to yield 10 concentration dose response for each test compound. Columns 1, 2, 23 and 24 contain either only DMSO or pharmacological known control inhibitor. Once titrations are made, 2.5 nL of the compounds on 384 well plates are reformatted and transferred by acoustic dispense in quadruplicates to a 1536 assay plate (Greiner) to assay across all four PI3K isoform enzymes.
(§4) The PI3-Kinase biochemical assay was optimized using the HTRF kit provided by Upstate (Millipore). The assay kit contains six reagents: 1) 4× Reaction Buffer; 2) native PIP2 (substrate); 3) Stop (EDTA); 4) Detection Mix A (Streptavidin-APC); 5) Detection Mix B (Eu-labeled Anti-GST plus GST-tagged PH-domain); 6) Detection Mix C. In addition, the following items were obtained or purchased; PI3Kinase (catalog #'s alpha 14-602, beta 14-603, gamma 14-558 and delta 14-604 from Upstate Biotechnology now EMD Millipore, Mahopac, N.Y., USA), dithiothreitol (Sigma-Aldrich Corp. (St. Louis, Mo., USA) Catalog #D-5545), Adenosine-5′ triphosphate (InVitrogen (Waltham, Mass., USA), Cat#AS001A), native PIP3 (PI(3,4,5)P3, diC8, H^+, CELLSIGNALS, INC., (Columbus, Ohio, USA) Cat #907) DMSO ((Sigma-Aldrich Corp. (St. Louis, Mo., USA) Catalog #472301).
(§5) PI3Kinase Reaction Buffer is prepared by dilution the stock 1:4 with de-ionized water. DTT (DL-Dithiothreitol), phosphatidylinositol 4,5-bisphosphate (PIP2) and Biotin-PIP3 were added to 1536 assay plate at a final concentration of 5 mM, […] and 25 nM on the day of use. Enzyme addition and compound pre-incubation are initiated by the addition of 1.25 ul of PI3K (at twice its final concentration) in the 1× reaction buffer to all wells using a BioRaptr™ (Beckman Coulter, Waltham, Mass. USA). Plates are incubated at room temperature for 15 minutes. Reactions are initiated by addition of 1.25 ul of 2× substrate solution (PIP2 and ATP in 1× reaction buffer) using BioRaptr™. Plates are incubated in humidified chamber at room temperature for one hour. Reactions are quenched by addition of 0.625 uL of stop solution to all wells using the BioRaptr™. […]

PI3Kalpha = PI3Kalpha (Homo sapiens (Human), UniProt P42336); assay: HTRF PI3K biochemical assay, alpha isoform (selectivity versus delta); conditions: relative ratio PI3K-alpha IC50 value / PI3K-delta IC50 value
Chain of PI3Kalpha (P42336 whole entry, canonical isoform): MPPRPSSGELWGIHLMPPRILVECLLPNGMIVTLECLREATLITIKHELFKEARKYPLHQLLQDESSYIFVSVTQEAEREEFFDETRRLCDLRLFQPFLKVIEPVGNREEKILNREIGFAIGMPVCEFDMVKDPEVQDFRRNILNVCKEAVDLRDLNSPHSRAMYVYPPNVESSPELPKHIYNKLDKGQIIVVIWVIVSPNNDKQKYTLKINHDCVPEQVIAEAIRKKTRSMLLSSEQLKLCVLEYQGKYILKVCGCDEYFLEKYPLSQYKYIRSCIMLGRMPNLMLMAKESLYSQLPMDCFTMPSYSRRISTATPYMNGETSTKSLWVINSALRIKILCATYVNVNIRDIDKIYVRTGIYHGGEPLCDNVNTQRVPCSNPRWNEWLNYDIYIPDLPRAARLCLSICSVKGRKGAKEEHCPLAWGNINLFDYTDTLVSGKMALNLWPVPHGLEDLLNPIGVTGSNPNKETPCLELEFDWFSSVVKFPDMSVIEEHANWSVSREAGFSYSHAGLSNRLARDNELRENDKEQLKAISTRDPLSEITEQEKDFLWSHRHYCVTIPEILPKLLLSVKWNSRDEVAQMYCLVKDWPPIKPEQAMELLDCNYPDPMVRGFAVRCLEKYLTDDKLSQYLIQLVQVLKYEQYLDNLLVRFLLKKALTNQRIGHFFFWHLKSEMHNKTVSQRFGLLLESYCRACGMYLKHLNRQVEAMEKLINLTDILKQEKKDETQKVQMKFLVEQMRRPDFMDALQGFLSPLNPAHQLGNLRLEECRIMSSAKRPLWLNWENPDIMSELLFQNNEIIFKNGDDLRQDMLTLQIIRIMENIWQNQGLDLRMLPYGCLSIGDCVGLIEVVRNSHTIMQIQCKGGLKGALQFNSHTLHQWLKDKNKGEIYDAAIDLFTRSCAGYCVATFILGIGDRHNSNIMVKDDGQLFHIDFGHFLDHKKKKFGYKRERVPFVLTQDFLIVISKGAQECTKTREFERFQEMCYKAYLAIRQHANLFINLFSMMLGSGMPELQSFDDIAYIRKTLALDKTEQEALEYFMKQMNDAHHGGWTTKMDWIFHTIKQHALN
Chain of PI3Kalpha (P27986 whole entry partner, canonical isoform): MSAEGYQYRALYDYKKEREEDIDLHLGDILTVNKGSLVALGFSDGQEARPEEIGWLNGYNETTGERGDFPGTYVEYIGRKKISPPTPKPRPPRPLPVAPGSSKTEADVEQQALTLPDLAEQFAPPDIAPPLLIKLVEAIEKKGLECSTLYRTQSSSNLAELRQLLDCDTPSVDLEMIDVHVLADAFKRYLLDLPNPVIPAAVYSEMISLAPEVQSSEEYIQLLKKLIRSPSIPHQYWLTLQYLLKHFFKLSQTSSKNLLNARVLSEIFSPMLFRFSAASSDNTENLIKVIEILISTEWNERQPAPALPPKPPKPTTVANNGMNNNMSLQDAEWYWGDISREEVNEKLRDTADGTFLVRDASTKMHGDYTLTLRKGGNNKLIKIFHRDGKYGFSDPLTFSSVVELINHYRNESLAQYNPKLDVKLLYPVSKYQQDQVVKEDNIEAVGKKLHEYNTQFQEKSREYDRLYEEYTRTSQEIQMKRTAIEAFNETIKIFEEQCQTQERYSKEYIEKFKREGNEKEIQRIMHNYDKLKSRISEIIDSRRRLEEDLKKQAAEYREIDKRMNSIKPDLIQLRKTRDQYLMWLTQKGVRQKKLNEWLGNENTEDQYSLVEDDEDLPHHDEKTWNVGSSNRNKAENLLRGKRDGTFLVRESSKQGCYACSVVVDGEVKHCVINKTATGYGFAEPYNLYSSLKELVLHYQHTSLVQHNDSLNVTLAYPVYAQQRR
From the text: as §1, §2, §3, §4, §5

Chain of PI3Kdelta (O00329 whole entry, canonical isoform): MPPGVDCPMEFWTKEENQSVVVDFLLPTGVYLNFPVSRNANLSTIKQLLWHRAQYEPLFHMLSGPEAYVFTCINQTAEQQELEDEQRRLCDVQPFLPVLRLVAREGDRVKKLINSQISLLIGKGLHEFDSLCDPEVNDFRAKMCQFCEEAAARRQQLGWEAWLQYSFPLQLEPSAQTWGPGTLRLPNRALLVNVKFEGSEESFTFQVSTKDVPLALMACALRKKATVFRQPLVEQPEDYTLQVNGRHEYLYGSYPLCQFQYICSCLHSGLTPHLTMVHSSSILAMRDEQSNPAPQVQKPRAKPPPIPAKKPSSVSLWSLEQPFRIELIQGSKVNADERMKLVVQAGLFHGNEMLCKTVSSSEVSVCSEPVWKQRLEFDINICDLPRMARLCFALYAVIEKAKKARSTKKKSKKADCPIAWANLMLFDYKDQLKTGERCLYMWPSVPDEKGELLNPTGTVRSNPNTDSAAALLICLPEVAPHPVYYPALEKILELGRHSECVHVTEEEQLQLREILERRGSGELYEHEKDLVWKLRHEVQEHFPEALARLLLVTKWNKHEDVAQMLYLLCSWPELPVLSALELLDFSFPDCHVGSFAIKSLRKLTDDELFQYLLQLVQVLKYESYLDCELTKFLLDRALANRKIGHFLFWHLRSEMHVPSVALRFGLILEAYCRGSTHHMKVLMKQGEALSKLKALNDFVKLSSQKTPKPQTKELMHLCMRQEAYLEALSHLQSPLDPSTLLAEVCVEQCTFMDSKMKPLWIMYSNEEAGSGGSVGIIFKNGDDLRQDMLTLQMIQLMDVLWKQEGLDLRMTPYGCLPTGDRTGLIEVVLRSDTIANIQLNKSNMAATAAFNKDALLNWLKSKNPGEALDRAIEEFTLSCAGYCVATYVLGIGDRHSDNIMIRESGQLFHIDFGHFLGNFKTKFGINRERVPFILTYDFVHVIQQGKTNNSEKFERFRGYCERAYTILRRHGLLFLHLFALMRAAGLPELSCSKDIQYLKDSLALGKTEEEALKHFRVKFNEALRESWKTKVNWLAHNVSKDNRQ
Chain of PI3Kdelta (P27986 whole entry partner, canonical isoform): as the sequence (P27986 whole entry partner, canonical isoform) above

Row | IC50 (PI3Kdelta) | Selectivity versus PI3Kalpha (PI3Kalpha) | SMILES
1 | 190 nM | >10 | CC(C)C[C@@H]1CN(c2nc(-c3cnn(C)c3)ncc2C#N)CCN1C(=O)C1CC1 [Compound 5-6, 4-[(3R)-4-(cyclopropylcarbonyl)-3-(2-methylpropyl)piperazin-1-yl]-2-(1-methyl-1H-pyrazol-4-yl)pyrimidine-5-carbonitrile]
2 | 550 nM | >10 | C[C@@H]1CN(c2nc(-c3cnn(C)c3)ncc2C#N)CCN1C(=O)C1CCC1(F)F (stereo partly drawn) [Compound 4-5, 4-{(3R)-4-[(2,2-difluorocyclobutyl)carbonyl]-3-methylpiperazin-1-yl}-2-(1-methyl-1H-pyrazol-4-yl)pyrimidine-5-carbonitrile]
3 | 30 nM | >10 | C[C@@H]1CN(c2nc(-c3cnn(C)c3)ncc2C#N)CCN1c1cccc(S(C)(=O)=O)c1 [Compound 4-13, 4-{(3R)-3-methyl-4-[3-(methylsulfonyl)phenyl]piperazin-1-yl}-2-(1-methyl-1H-pyrazol-4-yl)pyrimidine-5-carbonitrile]
4 | 180 nM | >10 | CCOC(=O)c1cnc(N2CCN(C(=O)C3CC3)[C@H](C)C2)nc1-c1cnn(C)c1 [Compound 5-12, ethyl 2-[(3R)-4-(cyclopropylcarbonyl)-3-methylpiperazin-1-yl]-4-(1-methyl-1H-pyrazol-4-yl)pyrimidine-5-carboxylate]
5 | 620 nM | >10 | C[C@@H]1CN(c2nc(-c3cnn(C)c3)ncc2Cl)CCN1C(=O)C1CC1 [Compound 5-13, 5-chloro-4-[(3R)-4-(cyclopropylcarbonyl)-3-methylpiperazin-1-yl]-2-(1-methyl-1H-pyrazol-4-yl)pyrimidine]
6 | 19 nM | >10 | C[C@@H]1CN(c2nc(-c3cnn(C)c3)nc(Nc3ccccc3)c2C#N)CCN1C(=O)C1CC1 [Compound 6-8, 4-[(3R)-4-(cyclopropylcarbonyl)-3-methylpiperazin-1-yl]-2-(1-methyl-1H-pyrazol-4-yl)-6-(phenylamino)pyrimidine-5-carbonitrile]
7 | 970 nM | >10 | Cn1cc(-c2ncc(C#N)c(N3CC4C[C@H]3CN4CCCF)n2)cn1 (stereo in doubt) [Compound 2-16, 4-[(1S,4R)-5-(3-fluoropropyl)-2,5-diazabicyclo[2.2.1]hept-2-yl]-2-(1-methyl-1H-pyrazol-4-yl)pyrimidine-5-carbonitrile]
8 | 760 nM | >10 | Cn1cc(-c2ncc(C#N)c(N3CCN(C(=O)C4CC4)[C@H](CO)C3)n2)cn1 [Compound 5-7, 4-[(3S)-4-(cyclopropylcarbonyl)-3-(hydroxymethyl)piperazin-1-yl]-2-(1-methyl-1H-pyrazol-4-yl)pyrimidine-5-carbonitrile]
9 | 870 nM | >10 | C[C@@H]1CN(c2nc(-c3cnn(C)c3)ncc2C#N)CCN1C(=O)C1CCCC1 [Compound 4-6, 4-[(3R)-4-(cyclopentylcarbonyl)-3-methylpiperazin-1-yl]-2-(1-methyl-1H-pyrazol-4-yl)pyrimidine-5-carbonitrile]
10 | 81 nM | >10 | Cc1c(-c2ncc(C#N)c(N3CCN(C(=O)C4CC4)[C@H](C)C3)n2)cnn1C [Compound 6-29, 4-[(3R)-4-(cyclopropylcarbonyl)-3-methylpiperazin-1-yl]-2-(1,5-dimethyl-1H-pyrazol-4-yl)pyrimidine-5-carbonitrile]
11 | 32 nM | >10 | C[C@@H]1CN(c2nc(-c3cnn(C)c3)c(C#N)c(C3CC3)n2)CCN1C(=O)C1CC1 [Compound 6-27, 4-cyclopropyl-2-[(3R)-4-(cyclopropylcarbonyl)-3-methylpiperazin-1-yl]-6-(1-methyl-1H-pyrazol-4-yl)pyrimidine-5-carbonitrile]
12 | 21 nM | >10 | C[C@@H]1CN(c2ncc(C#N)c(-c3cn(C)nc3N)n2)CCN1C(=O)C1CC1 [Compound 6-14, 4-(3-amino-1-methyl-1H-pyrazol-4-yl)-2-[(3R)-4-(cyclopropylcarbonyl)-3-methylpiperazin-1-yl]pyrimidine-5-carbonitrile]
13 | 140 nM | >10 | C[C@@H]1CN(c2nc(-c3cnn(C)c3)nc(Cl)c2C#N)CCN1C(=O)C1CC1 [Compound 6-5, 4-chloro-6-[(3R)-4-(cyclopropylcarbonyl)-3-methylpiperazin-1-yl]-2-(1-methyl-1H-pyrazol-4-yl)pyrimidine-5-carbonitrile]
14 | 49 nM | >10 | C[C@@H]1CN(c2nc(-c3cnn(C)c3)nc(NCC3COC3)c2C#N)CCN1C(=O)C1CC1 [Compound 6-18, 4-[(3R)-4-(cyclopropylcarbonyl)-3-methylpiperazin-1-yl]-2-(1-methyl-1H-pyrazol-4-yl)-6-[(oxetan-3-ylmethyl)amino]pyrimidine-5-carbonitrile]

Further lines, the compound ahead of its results:

Row | SMILES | IC50 (PI3Kdelta) | Selectivity versus PI3Kalpha (PI3Kalpha)
15 | Cn1cc(-c2ncc(C#N)c(N3CC4C[C@H]3CN4c3cccnc3)n2)cn1 (stereo in doubt) [Compound 1-6, 2-(1-methyl-1H-pyrazol-4-yl)-4-[(1S,4R)-5-pyridin-3-yl-2,5-diazabicyclo[2.2.1]hept-2-yl]pyrimidine-5-carbonitrile] | 110 nM | >10
16 | N#Cc1cnc(-c2ccnc3[nH]ccc23)nc1N1C[C@@H]2CC1CN2c1cccc(F)c1 (stereo in doubt) [Compound 1-17, 4-[(1R,4S)-5-(3-fluorophenyl)-2,5-diazabicyclo[2.2.1]hept-2-yl]-2-(1H-pyrrolo[2,3-b]pyridin-4-yl)pyrimidine-5-carbonitrile] | 56 nM | >10
17 | N#Cc1cnc(-c2cn[nH]c2)nc1N1C[C@@H]2C[C@H]1CN2c1cccc(F)c1 [Compound 1-7, 4-[(1S,4S)-5-(3-fluorophenyl)-2,5-diazabicyclo[2.2.1]hept-2-yl]-2-(1H-pyrazol-4-yl)pyrimidine-5-carbonitrile] | 42 nM | >10
18 | Cc1cncc(-c2ncc(C#N)c(N3C[C@@H]4CC3CN4c3cccc(F)c3)n2)c1 (stereo in doubt) [Compound 1-19, 4-[(1R,4S)-5-(3-fluorophenyl)-2,5-diazabicyclo[2.2.1]hept-2-yl]-2-(5-methylpyridin-3-yl)pyrimidine-5-carbonitrile] | 290 nM | >10
19 | Cn1cc(-c2ncc(C#N)c(N3C[C@@H]4C[C@H]3CN4c3cccc(F)c3)n2)cn1 [Compound 1-16, 4-[(1S,4S)-5-(3-fluorophenyl)-2,5-diazabicyclo[2.2.1]hept-2-yl]-2-(1-methyl-1H-pyrazol-4-yl)pyrimidine-5-carbonitrile] | 31 nM | >10
20 | Cn1cc(-c2ncc(C#N)c(N3CC4C[C@H]3CN4c3cccc([N+](=O)[O-])c3)n2)cn1 (stereo in doubt) [Compound 1-10, 2-(1-methyl-1H-pyrazol-4-yl)-4-[(1S,4R)-5-(3-nitrophenyl)-2,5-diazabicyclo[2.2.1]hept-2-yl]pyrimidine-5-carbonitrile] |  | >10
21 | Cn1cc(-c2ncc(C#N)c(N3C[C@H]4C[C@H]3CN4c3cccc([N+](=O)[O-])c3)n2)cn1 [Compound 1-10, 2-(1-methyl-1H-pyrazol-4-yl)-4-[(1S,4R)-5-(3-nitrophenyl)-2,5-diazabicyclo[2.2.1]hept-2-yl]pyrimidine-5-carbonitrile] | 38 nM | 
